Source: ChEMBL document CHEMBL1122601, “Novel tetracyclic spiropiperidines. 4. Synthesis and pharmacological evaluation of spiro- and 6,7-dihydrospiro[benzo[b]pyrrolo[3,2,1-jk][1,4]benzodiazepine-2 (1H),4'-piperidine]s” (1984)

Experiments:
Format in all cases: functional
[1] = system: Mus musculus; assay: Analgesic activity by injecting compound subcutaneously and measuring the inhibition of phenyl-p-benzoquinone-induced writhing (PQW) in mice.; conditions: sc
[2] = system: Mus musculus; assay: Antidepressant activity by injecting 20 mg/kg of compound intraperitoneally and measuring the ability to prevent tetrabenazine (TBZ) induced ptosis in mice.; conditions: ip, route intraperitoneal
[3] = system: Mus musculus; assay: Antidepressant activity by injecting compound intraperitoneally and measuring the ability to prevent tetrabenazine (TBZ) induced ptosis in mice.; conditions: ip
[4] = organism: Mus musculus; assay: Antidepressant activity by injecting compound perorally and measuring the ability to prevent tetrabenazine (TBZ) induced ptosis in mice.

| Compound | ED50 [1] [mg/kg] | inhibition in vivo at 20 mg/kg [2] [%] | ED50 [3] [mg/kg] | ED50 [4] [mg/kg] |
| --- | --- | --- | --- | --- |
| CC1=Nc2ccccc2N2CC3(CCN(C)CC3)c3cccc1c32.Cl.Cl | 4.7 | 50 | – | – |
| CN1CCC2(CC1)CN1c3ccccc3N=Cc3cccc2c31 | – | 20 | – | – |
| CN1CCC2(CC1)CN(c1ccccc1N)c1ccccc12 | 11.6 | – | 4 | 1.9 |
| CC1Nc2ccccc2N2CC3(CCN(C)CC3)c3cccc1c32.Cl.Cl (stereo not drawn) | 9.73 | 20 | – | – |
